The values that follow come from publication PMC10714399, “Open Source Antibiotics: Simple Diarylimidazoles Are Potent against Methicillin-Resistant Staphylococcus aureus” (ACS Infectious Diseases, 2023).

Series [1] concerns Staphylococcus aureus NCTC 13373 (mecA-positive; methicillin-resistant). The series can be described thus: In vitro antibacterial activity, MIC (UCL School of Pharmacy assay), MRSA. It is filed as cell-based. Conditions: for MIC: Staphylococcus aureus. The method in brief:
(§1)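 Strains: MRSA NCTC 13373, MSSA ATCC 25923, vanA E. faecalis ATCC 51299. Overnight agar growth suspended in PBS, A600 0.1, diluted 1:100 into isosensitest broth; 2-fold compound dilutions 32–0.03 μg/mL, ≤2% DMSO. Vancomycin QC.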

In series [2] the test system is S. aureus ATCC 25923 (methicillin-susceptible). Nature of the series: In vitro antibacterial activity, MIC (UCL), MSSA. In kind it is cell-based, Staphylococcus aureus. Conditions: Staphylococcus aureus; UCL assay; read-out: MSSA MIC (ug/mL) (UCL). The essentials:
as §1

The next series is described as follows: Aqueous solubility. In kind it is physicochemical. Conditions: thermodynamic from solid. The text has this:
To guide our initial SAR exploration work, we obtained liver microsomal intrinsic clearance data for 5 of the 18 compounds assayed by CO-ADD (Supporting Information - CDCO Report and Supporting Information - Biology). We then acquired intrinsic clearance (CLint), plasma protein binding (PPB), and solubility data on further compounds throughout the SAR campaign (Supporting Information - Biology, Tables S3 and S4). […] The more polar compounds (lower LogD) had reduced PPB and were more metabolically stable.
(§2) Table S4. ADME and Pharmacokinetics: compounds only appearing in the Supplementary […]
(§3) MRSA Aqueous HLM CLint Rat Hep CLint
(§4) Cmpd MIC Solubility Human PPB (%) (µL/min/mg (µL/min/10x6 LogD7.4
(§5) (µg/mL) (µM) protein) cells)
(§6) ADME and toxicity for compounds were measured according to procedures outlined in the manuscript submitted in parallel to this one;2 other procedures were used for those compounds analysed by Monash University (in vitro ADME) or UCL (toxicity), both described in the main

Series [3] in a line: Human plasma protein binding (PPB). In kind it is in vitro ADME. Conditions: human, plasma.
Text: (§7) To guide our initial SAR exploration work, we obtained liver microsomal intrinsic clearance data for 5 of the 18 compounds assayed by CO-ADD (Supporting Information - CDCO Report and Supporting Information - Biology). We then acquired intrinsic clearance (CLint), plasma protein binding (PPB), and solubility data on further compounds throughout the SAR campaign (Supporting Information - Biology, Tables S3 and S4).
as §2, §3, §4, §5, §6

A short description of series [4]: Human liver microsome intrinsic clearance. In kind it is in vitro ADME. Conditions: for microsomal CLint: human, liver microsomes, read-out: HLM CLint.
Text: as §7, §2, §3, §4, §5, §6
In general terms: Liver microsomes are a subcellular fraction often used to study metabolism.

Series [5] is described as follows: Rat hepatocyte intrinsic clearance. It is filed as in vitro ADME. Conditions: for hepatocyte CLint: rat, hepatocytes, Figure 4, read-out: Rat Hep CLint.
Text: as §7, §2, §3, §4, §5, §6

For series [6], the system named is MRC-5SV2 (human lung fibroblast cell line). Nature of the series: Toxicity against MRC-5SV2. In kind it is cell-based. As to the method:
as §6

Series [7] has as its system PMM (primary mouse macrophages). The series can be described thus: Toxicity against PMM. In kind it is cell-based. On the procedure: as §6
Series [8] deals with Enterococcus faecalis ATCC 51299 (vanA-positive; vancomycin-resistant). Nature of the series: In vitro antibacterial activity, MIC (UCL), VRE. It is filed as cell-based. Conditions: for MIC: read-out: VRE MIC. The essentials: as §1
[9] abbreviates: UCL assay, read-out: MRSA MIC (ug/mL) (UCL).
Where [10] appears, read: NEU, read-out: Aqueous Solubility (uM) (NEU).
The mark [11] stands for this setting: read-out: Human PPB (converted).

Converted amounts (≈) assume the structure as drawn. “And” between values parts separate entries of the source, which are not always exact repeats. Equal entries are not always repeated. Where two headings read alike, the source gives them in different places. Where only a bound is given, the exact number is not on record here.

For the compound `CC(=O)N(c1ccc(F)cc1)c1c(-c2ccccn2)nc2ccccn12` [OSA_001021], the MIC in series [1] (setting [9]) and in series [2] was more than 32 µg/mL each time. Besides, in “Aqueous solubility” (setting [10]), the solubility stood at 10 µM (≈ 3.46 µg/mL). Besides, the fraction unbound in series [3] (human plasma, NEU, read-out: Human PPB (%) (NEU) (converted)) was 0.17. Besides, the “HLM CLint (uL/min/mg protein) (NEU)” value in [4] (human liver microsomes, NEU) came to 19.8 uL/min/mg protein. Further, in series [5] (rat hepatocytes, NEU), the “Rat Hep CLint (uL/min/10x6 cells) (NEU)” value came to 81.2 uL/min/10x6 cells. For the same compound, in series [6] (MRC5 cells), the “MRC5 TC50” value turned out to be 64 µM. Besides, the “PMM TC50” value in series [7] (PMM) amounted to 64 µM.
Consider `COc1ccc(-c2nc3ccccn3c2Nc2ccc(F)cc2)nc1` [OSA_001022], for which the MIC in series [1] (setting [9]) and in series [2] was 8 µg/mL (≈ 23.9 µM) throughout. Besides, the solubility in “Aqueous solubility” (setting [10]) was found to be 3 µM (≈ 1 µg/mL).
For the compound `CS(=O)(=O)c1ccc(-c2c(-c3ccccn3)nc3n2CCC3)cc1` [compound 837], the “activity against MRSA, in words” value in series [1] is recorded as “not tolerated”. Besides, the MIC in series [1] (16 h, read-out: MRSA MIC) is more than 32 µg/mL; in [1] (read-out: MRSA MIC), more than 32 µg/mL; in series [8], more than 32 µg/mL. Besides, the solubility in the series “Aqueous solubility” (read-out: Aqueous Solubility) stood at 317 µM (≈ 108 µg/mL). For the same compound, in series [3] (setting [11]), the fraction unbound was 0.4. Moreover, the microsomal CLint in series [4] is less than 3 µL/min/mg. The hepatocyte CLint in series [5] was less than 1 µL/min/1e6 cells.
On to `C[S+]([O-])c1ccc(-c2c(-c3ccccn3)nc3n2CCC3)cc1` (stereo not drawn) [compound 838], for which the MIC was more than 32 µg/mL in series [1] (16 h, read-out: MRSA MIC); more than 32 µg/mL in series [1] (read-out: MRSA MIC); more than 32 µg/mL in series [8]. Besides, the solubility in “Aqueous solubility” (read-out: Aqueous Solubility) stood at 756 µM (≈ 245 µg/mL). Also, the fraction unbound in series [3] (setting [11]) was 0.45. The microsomal CLint in series [4] is less than 3 µL/min/mg. For the same compound, the hepatocyte CLint in [5] is less than 1 µL/min/1e6 cells.
Turning to `COc1ccn2c(Nc3ccccc3F)c(-c3cnn(C)c3)nc2c1` [compound 855], the “MRSA MIC” value in series [1] is > 32 µg/mL and 32 µg/mL. In addition, the “VRE MIC” value in [8] is listed as more than 32 µg/mL. Further, in series [6], the “MRC5 TC50” value is 21.6 µg/mL. For the same compound, in [7], the “PMM TC50” value was determined as 21.6 µg/mL.
Regarding `COc1ccn2cc(-c3ccccn3)nc2c1` [compound 856], in [1], the “MRSA MIC” value is > 32 µg/mL and 32 µg/mL. Besides, the “VRE MIC” value in series [8] is more than 32 µg/mL. Further, the “MRC5 TC50” value in [6] was determined as 11.6 µg/mL. Besides, in series [7], the “PMM TC50” value is on record as 14.4 µg/mL.
Take `COc1ccn2c(-c3ccc(F)cc3)c(-c3ccccn3)nc2c1` [compound 858]: in [1], the “MRSA MIC” value was found to be 16 µg/mL. Besides, in series [8], the “VRE MIC” value is listed as more than 32 µg/mL. Moreover, in [6], the “MRC5 TC50” value came out at 1.2 µg/mL. For the same compound, in series [7], the “PMM TC50” value was 2.6 µg/mL.
The corresponding values for `COc1ccn2c(-c3ccccc3)c(-c3ccccn3)nc2c1` [compound 860] are 8 µg/mL, 32 µg/mL, 1.2 µg/mL and 2.4 µg/mL.
For the compound `Fc1cccc(-c2c(-c3ccccn3)nc3n2CCC3)c1` [compound 872], the “MRSA MIC” value in series [1] is on record as 32 µg/mL. The MIC in [1] (read-out: MRSA MIC) and in series [8] was more than 32 µg/mL in each case. Further, the “MRC5 TC50” value in series [6] was found to be 2.0 µg/mL. For the same compound, the “PMM TC50” value in series [7] is recorded as 15.3 µg/mL.
With `Clc1ccc(-c2c(-c3ccccn3)nc3n2CCC3)cc1` [compound 875], the values for the MIC in [1] (read-out: MRSA MIC) and in series [8] were 4 µg/mL (≈ 13.5 µM) and 16 µg/mL (≈ 54.1 µM), respectively. For the same compound, the “MRC5 TC50” value in series [6] is recorded as 1.6 µg/mL. For the same compound, the “PMM TC50” value in [7] was 2.4 µg/mL.
Turning to `CN(C)C(=O)c1ccc(-c2c(-c3ccccn3)nc3n2CCC3)cc1` [compound 974], the “activity against MRSA, in words” value in series [1] is listed as “not tolerated”. For the same compound, the MIC in series [1] (16 h, read-out: MRSA MIC) is more than 32 µg/mL; in series [1] (read-out: MRSA MIC), more than 32 µg/mL; in series [8] it was more than 32 µg/mL. For the same compound, the solubility in “Aqueous solubility” (read-out: Aqueous Solubility) worked out at 782 µM (≈ 260 µg/mL). Moreover, the fraction unbound in series [3] (setting [11]) was 0.55. The microsomal CLint in series [4] was less than 3 µL/min/mg. The hepatocyte CLint in series [5] was less than 1 µL/min/1e6 cells.
`N#Cc1ccc(-c2c(-c3ccccn3)nc3n2CCC3)cc1` [compound 975]: the MIC in [1] (16 h, read-out: MRSA MIC) was found to be 4 µg/mL (≈ 14 µM); in series [1] (read-out: MRSA MIC), 4 µg/mL (≈ 14 µM); in series [8] it was 16 µg/mL (≈ 55.9 µM). Besides, the solubility in “Aqueous solubility” (read-out: Aqueous Solubility) was 38 µM (≈ 10.9 µg/mL). In series [3] (setting [11]), the fraction unbound was 0.29. Also, in [6], the “MRC5 TC50” value is reported as 7.4 µg/mL. Moreover, the “PMM TC50” value in series [7] came to 18.3 µg/mL.

As a reminder, the solubility is the concentration that dissolves in the medium under given conditions.
